Test results as given in patent publication US8236339B2, “Therapeutic delivery of carbon monoxide” (priority 2001, dated 2012).
Marks after values point to notes of the source that are not given here.

What was measured:
[1] = system: aortic rings pre-contracted with phenylephrine; test: Relaxation of isolated aortic rings pre-contracted with phenylephrine; set-up: species or system rat
Procedure: Transverse ring sections of thoracic aorta were isolated from male Lewis rats and suspended under a 2 g tension in an organ bath containing oxygenated Krebs-Henseleit buffer at 37° C. as previously described (23). The relaxation response to cumulative doses of metal carbonyl (dissolved in DMSO—see section 2) was assessed in aortic rings pre-contracted with phenylephrine (3 μM). Control rings were similarly treated by adding equal doses of DMSO (vehicle) to the organ bath.

RAW 264.7 macrophages [2] = details: 24 h, LPS 3 μg/ml with or without CO-RM-3 10, 50 and 100 μM
Procedure: Mouse RAW 264.7 macrophages were cultured in 24 wells using DMEM medium Confluent cells were incubated for 24 h with E. Coli lipopolysaccharide (LPS, 3 μg/ml) in the presence or absence of increasing concentrations of CO-RM-3 (10, 50 and 100 μM). Control cells were exposed to culture medium alone. […] Cell viability was also assessed in macrophages 24 h after treatment with the various agents as described in reference 47.

RAW 264.7 macrophages [3] = test: Nitrite (NO) production in LPS-stimulated macrophages, Griess reagent method; format: cell-based, mouse; details: 10, 50 and 100 μM, 24 h with LPS 3 μg/ml
Excerpt: Control cells were exposed to culture medium alone.

[4] = system: deoxymyoglobin (deoxy-Mb); test: Myoglobin assay: conversion of deoxy-Mb to MbCO on direct addition of metal carbonyl; format: biochemical, horse; details: direct addition to myoglobin solution (66 μM), no light
Procedure: The release of CO from metal carbonyl complexes was assessed spectrophotometrically by measuring the conversion of deoxymyoglobin (deoxy-Mb) to carbonmonoxy myoglobin (MbCO). MbCO has a distinctive absorption spectrum between 500 and 600 nm, and changes at 540 nm were used to quantify the amount of CO liberated. Myoglobin solutions (66 μM final concentration) were prepared freshly by dissolving the protein in 0.04 M phosphate buffer (pH 6.8). Sodium dithionite (0.1%) was added to convert myoglobin to deoxy-Mb prior to each reading. All the spectra were measured using a Helios a spectrophotometer.
Various metal carbonyl complexes were tested for their ability to elicit MbCO formation when added directly to a deoxy-Mb solution. To different extents, [Ru(CO)3Cl2]2, [Ru(CO)2(DMSO)2Cl2], [Ru(CO)3Cl2(cytosine)] and […] all released CO when added directly to the Mb solution.
The metal carbonyl complex was solubilized in DMSO (9.7 mM stock solution), aliquots of 2 to 32 μl were added directly to 1 ml of deoxy-Mb solutions (66 μM) and absorption spectrum determined immediately after mixing the samples by inversion.

[5] = Cardiac transplant rejection, BALB/c hearts into CBA mice; format: in vivo, mouse; details: 40 mg/kg i.p. doses
Procedure: Hearts from male BALB/c mouse (25-30 g) were used as donor organs for transplantation into male CBA mice (25-30 g). Mice were housed in groups of 3 in cages under a 12 h cycle of day/night, with free access to drinking water and fed ad libitum. All surgical procedures were performed in compliance with U.K. Home Office regulations. Animals were anaesthetized by an intraperitoneal injection of ketamine/xylazine during all procedures. The surgical technique involved the transplantation of the cardiac allograft into the recipient's neck as previously described (51). Graft survival was assessed daily by palpation, and rejection was diagnosed by cessation of ventricular contractions.
Ru(CO)3Cl(glycinato) was dissolved in 0.1 ml saline and administered intraperitoneally. All doses are 40 mg/kg of Ru(CO)3Cl(glycinato). The donors received two doses of Ru(CO)3Cl(glycinato) respectively at 1 day and 15 min prior to cardiac harvest. The recipients received doses of Ru(CO)3Cl(glycinato) at 1 day before surgery, 30 min prior to cardiac reperfusion and 1 h after transplantation (Day 0). Thereafter, graft recipients received a daily dose of Ru(CO)3Cl(glycinato) from day 1 to day 8(inclusive) post-transplant. In the control group, recipients received an equivalent dose of saline (vehicle) 1 day before and each day (days 1 to 8) after cardiac transplantation. Carprofen (0.01 mg) was given subcutaneously for pain relief immediately after transplantation to all animals. The results of this study are shown in FIG. 10. n=5 for each group. *p<0.002 vs. control. BALE/c hearts transplanted into CBA mice following treatment with saline (control group) underwent rejection'very rapidly. 100% of hearts stopped beating within 9 days of transplantation.

[6] = Systemic blood pressure and heart rate in anaesthetised Sprague-Dawley rats; format: in vivo, rat
Procedure: Adult male Sprague-Dawley rats (280-350 g, 8-10 weeks of age) were bred in-house at the Northwick Park Institute for Medical Research (Harrow, UK). Rats were housed in groups of 3 in cages under a 12 h cycle of day/night, with free access to drinking water and fed ad libitum. All surgical procedures were performed in compliance with U.K. Home Office regulations. Rats were anaesthetised in a polycarbonate chamber in a stream of Enflurane™ (Abbot, UK) in oxygen before being transferred onto a mask and continuously supplied with Enflurane™ throughout the experiment with an anaesthetic machine (Aimed, UK). During the surgical procedure the rats were kept at a constant body temperature of 37° C. using a heat pad positioned underneath the operating surface. Specially designed femoral artery and venous catheters were then surgically implanted as previously described (see ref. 40). The catheter in the artery was connected via a luer connector and a three-way tap to a pressure transducer (Gould model P23ID, Statham, USA) for continuous mean arterial pressure (MAP) and heart rate (HR) monitoring. A purpose-built tail-cuff pressure transducer (ADInstruments, UK) was also placed on the tail of the rat and pressure transducer and tail cuff were connected to a polygraph recorder (Grass, Model 7D, Astra-med, UK) pre-calibrated in millimeters of mercury (mmHg). An analogue output provided data for a computer-based data acquisition system (PowerLab™, ADInstruments, UK). The computer-based system was set to record mean arterial pressure (MAP), in mmHg, and heart rate (HR), in beats/min (bpm), for the duration of the experiment. […] Once a stable pressure had been reached, each catheter was flushed with saline containing heparin and no further changes were made to the anaesthetic supply. Ru(CO)3Cl(glycinato) (CO-RM-3) was prepared in stock solutions of 20, 60 and 120 μmoles·ml^−1 by solubilizing the compound in saline. […] CO-RM-3 (or the negative control) was then infused into the animal via the femoral vein catheter as a bolus so that the final concentration infused was 10, 30 or 60 μmoles·kg^−1 body weight. Throughout the experiment MAP and HR were continuously recorded and monitored. Although concentrations of 10, 30 and 60 μmoles·kg^−1 were infused into each animal, the resulting concentrations in the animal were cumulative. Therefore, the final concentration attained in the animal was 10, 40 and 100 μmoles·kg^−1, respectively.
The results are presented in Table 2, where the data shown represents samples taken at baseline (just before infusion of the compound) and directly after administration of 10, 30 and 60 μmoles·kg^−1 of the compound. All data are mean i SEM. n=3 independent experiments. *P<0.05 vs. baseline.

[7] = cumulative doses, phenylephrine 3 μM
[8] = directly after i.v. bolus 10 μmol/kg
[9] = directly after i.v. bolus 30 μmol/kg (cumulative 40)

Structure (SMILES): NCC(=O)O.[C-]#[O+].[C-]#[O+].[C-]#[O+].[Cl][Ru] [CO-RM-3, Ru(CO)3Cl (NH2CH2CO2)]
- vasodilatory effect on pre-contracted aortic rings (in words) ([1]; consecutive additions): elicited significant vasodilatation
- % Relaxation, 1st addition [1, 7]: 36%
- % Relaxation, 2nd addition [1, 7]: 66.6%
- % Relaxation, 3rd addition [1, 7]: 68.3%
- cell viability of macrophages (RAW 264.7 macrophages [2]): did not affect cell viability
- nitrite generation in LPS-stimulated macrophages (RAW 264.7 macrophages [3]): significantly attenuated nitrite generation in a concentration dependent manner
- MbCO formation / CO release when added directly to deoxy-Mb solution ([4]; listed as [Bu(CO)3(glycinate)Cl]): released CO
- MbCO formation / CO release when added directly to deoxy-Mb solution ([4]; listed as [Ru(CO)3(glycinato)Cl]): high release of CO
- survival time of transplanted hearts (in words) ([5]; vs. saline control): significantly prolonged
- hearts still beating ([5]; 18 days after transplantation): 100%
- mice without any sign of rejection ([5]; 25 days after heart transplantation): 60%
- transplanted hearts still viable ([5]; at 30 days): 40%
- transient decrease in MAP ([6]; 10 μmoles·kg^−1 bolus infusion): 6±2 mmHg
- transient decrease in MAP ([6]; 30 μmoles·kg^−1 bolus infusion): 8±3 mmHg
- transient decrease in MAP ([6]; 60 μmoles·kg^−1 bolus infusion): 14±0.3 mmHg
- effects on HR or MAP (in words) ([6]; 10, 30 or 60 μmoles·kg^−1): concentration-dependent transient decrease in MAP
- period of return of MAP to baseline ([6]; after bolus infusion): 10 min
- HR, 10 μmol.kg^−1 [6, 8]: 276 ± 20 bpm
- MAP, 10 μmol.kg^−1 [6, 8]: 73 ± 2 mmHg
- HR, 30 μmol.kg^−1 [6, 9]: 261 ± 22 bpm
- MAP, 30 μmol.kg^−1 [6, 9]: 72 ± 7 mmHg
- MAP, 60 μmol.kg^−1 ([6]; directly after i.v. bolus 60 μmol/kg (cumulative 100)): 65 ± 4* mmHg
- HR, 60 μmol.kg^−1 ([6]; directly after i.v. bolus 60 μmol/kg (cumulative 100), listed as Ru(CO)3Cl(glycinate)): 253 ± 23 bpm
- HR, 60 μmol.kg^−1 ([6]; directly after i.v. bolus 60 μmol/kg (cumulative 100), listed as Ru(CO)3Cl(glycinato)): 253±23 bpm
- MAP, Baseline ([6]; just before infusion of the compound): 79 ± 2 mmHg
- HR, Baseline ([6]; just before infusion of the compound, listed as Ru(CO)3Cl(glycinate)): 270 ± 20 bpm
- HR, Baseline ([6]; just before infusion of the compound, listed as Ru(CO)3Cl(glycinato)): 270±20 bpm
